Columns and labels:
[1] = system: SLAC/GK rats, type 2 diabetes; experiment: Blood lipid levels in type 2 diabetic rats, transdermal; type: in vivo; conditions: baseline of the treatment group
Excerpt: (§1) The pro-drugs in this invention lower blood glucose levels in rat models (SLAC/GK, type 2 diabetes, n=7). 50% acetone solution of diethylaminoethyl acetylsalicylate.acetylsaficylic acid salt (P-1, in acetone); 4-acetamidophenyl salicylyldimethylaminobutyrate.HCl (P-6), diethylaminoethyl 5-(2,4-difluorophenyl) acetylsalicylate.5-(2,4-difluorophenyl) acetylsalicylic acid salt (P-8), diethylaminoethyl salicylsalicylate.AcOH (P-9), diethylaminoethyl salicylate.AcOH (P-10), diethylaminoethyl 5-acetamido-acetylsalicylate (P-58), diethylaminoethyl acetylsalicylsalicylate. acetylsalicylsalicylic acid salt (P-59), diethylaminoethyl acetylsalicylsalicylate. acetylsalicylsalicylsalicylic acid salt (P-60) (equal to of 20 mg/kg of NSAIAs) were administered transdermally to the backs (about 1.5 cm^2) of rats (fur was shaved) once per day (at 8 am) for 5 weeks. The blood glucose levels were measured once every 3 days at 4 pm (no fasting) from the second week to the fifth week. The blood lipid levels were measured at the end of the fifth week.

normal rats = experiment: Blood glucose in normal rats, transdermal; type: in vivo; conditions: no fasting
[2] = system: SLAC:NOD-IDDM mice, type 1 diabetes; experiment: Blood glucose in type 1 diabetic mice, transdermal; type: in vivo; conditions: no fasting
Excerpt: The pro-drugs in this invention lower blood glucose levels in mouse models (SLAC:NOD-IDDM, type 1 diabetes, n=7). 20% acetone solution of diethylaminoethyl acetylsalicylate.acetylsalicylic acid salt (P-1, in acetone); 4-acetamidophenyl salicylyldimethylaminobutyrate.HCl (P-6), diethylaminoethyl 5-(2,4-difluorophenyl) acetylsalicylate.5-(2,4-difluorophenyl) acetylsalicylic acid salt (P-8), diethylaminoethyl salicylsalicylate.AcOH (P-9), diethylaminoethyl salicylate.AcOH (P-10), diethylaminoethyl 5-acetamido-acetylsalicylate (P-58), diethylaminoethyl acetylsalicylsalicylate. acetylsalicylsalicylic acid salt (P-59), diethylaminoethyl acetylsalicylsalicylate. acetylsalicylsalicylsalicylic acid salt (P-60) (equal to of 20 mg/kg of NSAIAs) were administered transdermally to the backs (about 1 cm^2) of mice (fur was shaved) once per day (at 8 am) for 7 weeks. The blood glucose levels were measured once every 3 days at 3 pm (no fasting) from the fourth week to the seventh week.

[3] = system: SLAC/GK rats, type 2 diabetes; experiment: Blood glucose in type 2 diabetic rats, transdermal; type: in vivo; conditions: baseline of the treatment group; no fasting
Excerpt: as §1

Chinese White rabbits [4] = experiment: Autologous blood clot pulmonary embolism model, thrombus propagation; type: in vivo; conditions: 15 mg/kg topically on the back; after 2 days
Protocol: Eighteen Chinese White rabbits weighing between 3.0 and 3.5 kg (aged 6-7 months) were selected and divided into three groups (control, P-1 and […] groups, n=6). One hour before the experiment, thrombi were made by aspirating venous blood (1 ml) into a sterilized bottle to clot. To avoid fragmentation and slow lysis, the autologous blood clots were stabilized in temperature-controlled (70° C.) distilled water for 10 min. After anesthesia, the femoral veins were exposed and distally isolated, and autologous blood clots (0.05 g/kg) were injected through an indwelling catheter (20GA), which had been placed in the femoral vein isolated earlier. 50% acetone solution of diethylaminoethyl acetylsalicylate.acetylsalicylic acid salt (P-1, in acetone, 15 mg/kg) and diethylaminoethyl acetylsalicylsalicylate.acetylsalicylsalicylic acid salt (P-59, 15 mg/kg) were topically applied to the back of the rabbits. After 2 days, rabbits were euthanized with an excessive intravenous injection of sodium amobarbital (60 mg/kg). The lungs and hearts were isolated to observe whether thrombi were present in the pulmonary arteries. The lungs were immersed in 10% formalin for 24 h. Consecutive transverse sections along the obstructed pulmonary arteries were paraffin-embedded and stained with hematoxylin-eosine. […]

[5] = In vivo penetration through skin of intact rats; distribution in plasma and tissues
[6] = system: human breast cancer cells (BCAP-37); experiment: Anti-tumor activity, human breast cancer xenograft in nude mice, topical; conditions: day 42; 30 μl of 5% (1.5 mg) topically every 8 hours; BCAP-37 xenograft; in g (unit assumed)
Protocol: For evaluation of anti-tumor activity of the pro-drugs of NSAIAs, human breast cancer cells (BCAP-37, 2-3 mm^3 of tumor tissue was used in each mouse) were subcutaneously xenografted into nude mice (BALE, 12 groups, 7 mice each group). After 14 days, the tumors were growing to the size of 50±10 mm^3 (0.05 ml). Then 30 μl of 5% (equal to 1.5 mg of the pro-drugs) diethylaminoethyl acetylsalicylate.acetylsalicylic acid salt (P-1, in acetone); 1-piperidinepropyl 2[(2,6-dichlorophenyl)amino]benzene acetate.AcOH (P-2, in water), 1-pyrrolidinepropyl 2-(3-benzoylphenyl) propionate.AcOH (P-3, in water), 4-piperidinemethyl 2-(3-phenoxyphenyl)propionate.AcOH (P-4, in water), 3-piperidinemethyl 2-(ρ-isobutylphenyl) propionate.AcOH (P-5, in water), diethylaminoethyl 1-(p-chlorobenzoyl)-5-methoxy-2-methylindole 3-acetate.AcOH (P-11, in water), 2-(4-morpholinyl)ethyl (Z)-5-fluoro-2-methyl-1-[(4-methylsulfinyl) phenylmethylene]-1H-indene-3-acetate.AcOH (P-12, in water), diethylaminoethyl 2-(2,4-dichlorophenoxy)benzeneacetate.AcOH (P-19, in water), diethylaminoethyl 2-(8-methyl-10, 11-dihydro-11-oxodibenz(b,f)oxepin-2-yl)propionate.AcOH (P-37, in water), 1-pyrrolidinepropyl 2-[[(3-(trifluoromethyl)phenyl)amino]benzoate.AcOH (P-48, in water), 4-N,N-dimethylaminobutyryloxy-2-methyl-N-2-pyridinyl-2H,1,2-benzothiazine-3-carb oxamide 1,1-dioxide.HCl (P-51, in acetone) was topically applied to the human breast cancer cells-implanted area (near the front leg) every 8 hours.

[7] = system: human colon cancer cells (LS174J); experiment: Anti-tumor activity, human colon cancer xenograft in nude mice, topical; conditions: for Weight of nude mice: day 30, about 30 μl of 5% (1.5 mg) topically every 8 hours
Protocol: In the second anti-tumor experiment, human colon cancer cells (LS174J, 2-3 mm^3 of tumor tissue was used in each mouse) were subcutaneously xenografted into nude mice (BALB). After 7 days, the tumors were growing to the size of 55±10 mm^3 (0.055 ml). Then about 30 μl of 5% (equal to 1.5 mg of the pro-drugs) diethylaminoethyl acetylsalicylate.acetylsalicylic acid salt (P-1, in acetone); 1-piperidinepropyl 2[(2,6-dichlorophenyl)amino]benzene acetate.AcOH (P-2, in water), 1-pyrrolidinepropyl 2-(3-benzoylphenyl) propionate.AcOH (P-3, in water), 4-piperidinemethyl 2-(3-phenoxyphenyl)propionate.AcOH (P-4, in water), 3-piperidinemethyl 2-(ρ-isobutylphenyl) propionate.AcOH (P-5, in water), diethylaminoethyl 1-methyl-5-(4-methylbenzoyl)-1H-pyrrole-2-acetate.AcOH (P-13, in water), 2-(4-morpholinyl)ethyl 2-amino-3-benzoylbenzeneacetateAcOH (P-16, in water), diethylaminoethyl 2-(10,11-dihydro-10-oxodibenzo(b,f)thiepin-2-yl)propionate.AcOH (P-36), diethylaminoethyl 2-[(2,3-dimethylphenypamino]benzoate.AcOH (P-46, in water), diethylaminoethyl 2-[(2,6-dichloro-3-methylphenyl)amino]benzoate.AcOH (P47, in water), N-(2-thiazoyl)-4-N,N-dimethylaminobutyryloxy-2-methyl-2H,1,2-benzothiazine-3-car boxamide 1,1-dioxide.HCl (P-52, in acetone) was topically applied to the human colon cancer cells-implanted area (near the front leg) every 8 hours.

Chinese White rabbits [8] = experiment: Malassezia-induced psoriasis-like lesions; type: in vivo; conditions: 5% aqueous solution applied twice per day; 10 days after the application
Excerpt: COX-1 and COX-2 play a very important role in animal immune-responses. NSAIAs inhibite COX-1 and COX-2. The pro-drugs of NSAIAs in this invention may be very useful for treating psoriasis, discoid lupus erythematosus, systemic lupus erythematosus (SLE), and other autoimmune diseases. Heavy suspensions of Malassezia [Rosenberg, E. W., et al., Mycopathologia, 72, 147-154 (1980)] were applied to the shaved skin on the backs of the Chinese white rabbits (n=4×6) twice (at 7 am and 7 pm) per day for 2 weeks, lesions similar to psoriasis resulted.

[9] = baseline of the treatment group
[10] = 4 hours after 20% P-2 in 1 ml ethanol on about 5 cm^2 of rat back

SMILES: CC(=O)Oc1ccccc1C(=O)O.CCN(CC)CCOC(=O)c1ccccc1OC(C)=O [P-1, diethylaminoethyl acetylsalicylate.acetylsalicylic acid salt]
- Triglycerides, Baseline [1]: 5.9 ± 0.5 mmol/L
- Blood glucose, normal rats, Baseline (normal rats; [9]): 6.4 ± 1 mmol/L
- Blood glucose, normal rats, Average (normal rats; transdermal, equal to 20 mg/kg of NSAIAs once per day for 5 weeks, second to fifth week): 6.3 ± 1 mmol/L
- Blood glucose, type I diabetic mice, Baseline [2, 9]: 26.1 ± 5 mmol/L
- Blood glucose, type I diabetic mice, Average ([2]; transdermal, equal to 20 mg/kg of NSAIAs once per day for 7 weeks, fourth to seventh week): 6.5 ± 1 mmol/L
- Blood glucose, diabetic rats, Baseline [3]: 16.1 ± 3 mmol/L
- Histology of lung tissue and vascular walls after clot injection (Chinese White rabbits [4]): both lung tissue and vascular walls were normal

SMILES: CC(=O)O.O=C(Cc1ccccc1Nc1c(Cl)cccc1Cl)OCCCN1CCCCC1 [P-2, 1-piperidinepropyl 2[(2,6-dichlorophenyl)amino]benzene acetate.AcOH]
- Brain level of prodrug or metabolite [5, 10]: 25 ± 6 µg/g
- Kidney level of prodrug or metabolite [5, 10]: 20 ± 6 µg/g
- Liver level of prodrug or metabolite [5, 10]: 22 ± 8 µg/g
- Plasma level of prodrug or metabolite [5, 10]: 40000 ± 10000 ng/mL
- Weight of nude mice [6]: 22 ± 2
- Weight of nude mice [7]: 22 ± 2

SMILES: CC(=O)O.CCN(CC)CCOC(=O)Cc1c(C)n(C(=O)c2ccc(Cl)cc2)c2ccc(OC)cc12 [P-11, diethylaminoethyl 1-(p-chlorobenzoyl)-5-methoxy-2-methylindole 3-acetate.AcOH]
- Weight of nude mice [6]: 21 ± 2

SMILES: CC(=O)O.CCN(CC)CCOC(=O)Cc1ccc(C(=O)c2ccc(C)cc2)n1C [P-13, diethylaminoethyl 1-methyl-5-(4-methylbenzoyl)-1H-pyrrole-2-acetate.AcOH]
- Psoriasis-like lesions (Chinese White rabbits [8]): the lesions were resolved
- Weight of nude mice [7]: 21 ± 2

SMILES: CC(=O)O.CCN(CC)CCOC(=O)Cc1cccc(C(=O)c2ccc(Br)cc2)c1N [P-17, diethylaminoethyl 2-amino-3-(4-bromo-benzoyl)benzeneacetate.AcOH]
- Psoriasis-like lesions (Chinese White rabbits [8]): the lesions were resolved

SMILES: C=CCOc1ccc(CC(=O)OCCN(CC)CC)cc1Cl.CC(=O)O [P-18, diethylaminoethyl 3-chloro-4-(2-propenyloxy)benzeneacetate.AcOH]
- Psoriasis-like lesions (Chinese White rabbits [8]): the lesions were resolved

SMILES: CC(=O)O.CCN(CC)CCOC(=O)COC(=O)Cc1c(C)n(C(=O)c2ccc(Cl)cc2)c2ccc(OC)cc12 [P-20]
- Psoriasis-like lesions (Chinese White rabbits [8]): the lesions were resolved

SMILES: CC(=O)O.CCN(CC)CCOC(=O)Cc1sc(-c2ccccc2)nc1-c1ccc(Cl)cc1 [P-21, diethylaminoethyl 4-(4-chlorophenyl)-2-phenyl-5-thiazoleacetate.AcOH]
- Psoriasis-like lesions (Chinese White rabbits [8]): the lesions were resolved

SMILES: CC(=O)O.CCN(CC)CCOC(=O)Cc1cn(-c2ccccc2)nc1-c1ccc(Cl)cc1 [P-22, diethylaminoethyl 3-(4-chlorophenyl)-1-phenyl-1H-pyrazole-4-acetate.AcOH]
- Psoriasis-like lesions (Chinese White rabbits [8]): the lesions were resolved

SMILES: CC(=O)O.O=C(OCCCN1CCCC1)c1ccccc1Nc1cccc(C(F)(F)F)c1 [P-48]
- Weight of nude mice [6]: 22 ± 3

SMILES: CN(C)CCCC(=O)OC1=C(C(=O)Nc2nccs2)N(C)S(=O)(=O)c2ccccc21.Cl [P-52, N-(2-thiazoyl)-4-N,N-dimethylaminobutyryloxy-2-methyl-2H,1,2-benzothiazine-3-car boxamide 1,1-dioxide.HCl]
- Tumor size ([7]; day 30, about 30 μl of 5% (1.5 mg) topically every 8 hours from day 7): 690 ± 250 mm^3

SMILES: CC(C(=O)O)c1cccc(C(=O)c2ccccc2)c1 (stereo not drawn) [ketoprofen, reference compound]
- Drug found in rat tissues or plasma after topical application of the parent drug itself ([5]; 4 hours after 20% parent drug in 1 ml ethanol on about 5 cm^2 of rat back, blood, liver, kidney, brain): None of these drugs was found

— patent US10233198B2, “Pro-drugs of NSAIAs with very high skin and membranes penetration rates and their new medicinal uses” (Techfields Pharma Co., Ltd., priority 2007, dated 2019)
